Assay results reported in US20230339991A1, “HYPOXIA-ACTIVATED DNA ALKYLATING AGENT AND MEDICAL USE THEREOF” (ASCENTAWITS PHARMACEUTICALS, LTD., priority 2020, published 2023).
Where two headings read alike, the source gives them in different places.

Columns and labels:
[1] = system: NCI-H2228; assay: Cytotoxicity, NSCLC cell line NCI-H2228; format: cell-based; details: Homo sapiens
Method: (§1) Compounds were exposed at various concentrations for 72 hours, followed by a wash step. Fresh medium was added for growth. The cell was stained to determine the cell survival rate and compared with controls treated with medium only.
(§2) In particular, exponentially grown cells were inoculated in 96-well plates at a density of 2×10^3 cells/100 μl/well and incubated for 24 hours at 37° C. and under the conditions of 5% CO2, 95% air and 100% relative humidity before addition of 99 μl of culture solution. The compounds were dissolved in 100% DMSO at 200 times of the desired final test concentration. When the drug was added, an aliquot of 1 μl of the compound at the specified concentration was added to microwells already containing 199 μl of medium to obtain the reported final drug concentration. After adding the drug, plates were incubated for an additional 72 hours at 37° C., 5% CO2, 95% air and 100% relative humidity. The cell assay plate was left to balance for 30 minutes at room temperature and 100 μL of medium was removed from per well. 100 μl CTG reagent (CelltiterGlo kit) was added into each well. The plate was placed on a fast shaker and shaked for 2 min, and kept in dark at room temperature for 30 min. The chemiluminescence signal value was read by Envision instrument. […]

[2] = system: NCIH1755; assay: Cytotoxicity, NSCLC cell line NCIH1755; format: cell-based; details: Homo sapiens, NCI-H1755
Method: as §1, §2

[3] = system: NCIH2106; assay: Cytotoxicity, NSCLC cell line NCIH2106; format: cell-based; details: Homo sapiens
Method: as §1, §2

[4] = system: NCI-H522; assay: Cytotoxicity, NSCLC cell line NCI-H522; format: cell-based; details: Homo sapiens
Method: as §1, §2

[5] = system: NCI-H1792; assay: Cytotoxicity, NSCLC cell line NCI-H1792; format: cell-based; details: Homo sapiens
Method: as §1, §2

[6] = system: AsPC-1; assay: Cytotoxicity, pancreatic cancer PA cells AsPC-1; format: cell-based; details: Homo sapiens, ASPC1
Method: as §1, §2

[7] = system: QGP-1; assay: Cytotoxicity, pancreatic cancer PA cells QGP-1; format: cell-based; details: Homo sapiens
Method: as §1, §2

[8] = system: HPAF-II; assay: Cytotoxicity, pancreatic cancer PA cells HPAF-II; format: cell-based; details: Homo sapiens
Method: as §1, §2

[9] = system: KP-2; assay: Cytotoxicity, pancreatic cancer PA cells KP-2; format: cell-based; details: Homo sapiens
Method: as §1, §2

[10] = system: CFPAC1; assay: Cytotoxicity, pancreatic cancer PA cells CFPAC1; format: cell-based; details: Homo sapiens, CFPAC-1
Method: as §1, §2

[11] = system: Capan-1; assay: Cytotoxicity, pancreatic cancer PA cells Capan-1; format: cell-based; details: Homo sapiens
Method: as §1, §2

[12] = system: MIA PaCa-2; assay: Cytotoxicity, pancreatic cancer PA cells MIA PaCa-2; format: cell-based; details: Homo sapiens
Method: as §1, §2

[13] = system: PL45; assay: Cytotoxicity, pancreatic cancer PA cells PL45; format: cell-based; details: Homo sapiens
Method: as §1, §2

[14] = system: KP-4; assay: Cytotoxicity, pancreatic cancer PA cells KP-4; format: cell-based; details: Homo sapiens
Method: as §1, §2

[15] = system: murine intestinal cancer CT26 subcutaneous model; assay: Murine intestinal cancer CT26 subcutaneous model; format: in vivo, BALB/c mice; details: 30 mg/kg, tail vein, twice a week
Method: BALB/c mice were subcutaneously inoculated with murine intestinal cancer CT26 cells to establish a murine intestinal cancer subcutaneous transplantation model. […] Anti-mouse PD-1 Ab 10 mg/kg in the single treatment group and in the combination treatment group with compound C 30 mg/kg was administered by intraperitoneal injection twice a week.

[16] = system: human lung cancer NCI-H460-Luc2 intracranial transplantation tumor; details: for mean biofluorescence value / TGI: 11 days after grouping
Method: BALB/c nude mice were inoculated intracranially with human lung cancer NCI-H460-Luc2 cells to establish human lung cancer intracranial transplantation tumor model. […] The relative tumor inhibition rate TGI (%) was calculated based on tumor biofluorescence value and the efficacy was evaluated.

[17] = system: HuPrime pancreatic cancer PA3546 subcutaneous xenograft PDX tumor; assay: PA3546 human pancreatic cancer subcutaneous PDX model; details: for relative tumor inhibition rate TGI (%): Day 25
Method: BALB/c nude mice were subcutaneously inoculated with HuPrime® model PA3546 tumor blocks to establish human pancreatic cancer subcutaneous transplantation tumor model. […] Efficacy was evaluated according to the relative tumor inhibition rate TGI (%), and safety was evaluated according to the change in body weight and the death of animals.

[18] = system: ICR mice; assay: Maximal tolerance dose (MTD) test, compound B; format: in vivo; details: 40 mg/kg group; i.v. QD×5
Method: 18 ICR mice, 9 females/9 males, were randomly divided into compound B 10 mg/kg group, 20 mg/kg group and 40 mg/kg group according to gender and body weight, with 3 females/3 males in each group. […] It was administered once a day for 5 days, and recovered for 2 weeks after the last administration. The animals were closely observed for 2 h after administration on the administration day and once a day in the morning and once in the afternoon on the non-administration day. Body weight and dietary intake were measured twice a week during the test period. Dead animals and all surviving animals after 14 days from the last administration were subjected to autopsy. The autopsy was performed on the pathological organs, and histopathological examination of the pathological organs was performed.

[19] = Liver microsome stability, monkey
Method: 1) Two individual experiments were performed.
1a) With NADPH: 10 μL of 20 mg/mL liver microsomes and 40 μL of 10 mM NADPH were added to the culture solution. The final concentrations of microsomes and NADPH were 0.5 mg/mL and 1 mM, respectively.
1b) Without NADPH: 10 μL of 20 mg/mL liver microsomes and 40 μL of ultrapure H2O were added to the culture solution. The final concentration of microsomes was 0.5 mg/mL.
3) 50 μL of aliquots were taken from the reaction solution at 0 min and 30 min. The reaction was terminated by adding 4 volumes of cold acetonitrile and four internal standards (IS, 100 nM alprazolam, 200 nM caffeine, 200 nM labetalol and 2 μM ketoprofen). The samples were centrifuged at 3, 220×g for 40 min. The aliquots of 100 μL of supernatant were mixed with 100 μL of ultrapure H2O and then used for LC-MS/MS analysis. All experiments were performed in duplicate.

O=[N+]([O-])c1ccc(C(OP(=O)(N2CC2)N2CC2)C(F)(F)F)c2ccccc12 (racemic) [Compound A] gave an IC50 [1] of 0.264 µM, an IC50 [2] of 6.46 µM and an IC50 [3] of 14.8 µM. For the same compound, the IC50 [4] was 19.2 µM, the IC50 [5] was 4.79 µM and the IC50 [6] was 12.6 µM. For the same compound, the IC50 [7] was 6.27 µM, the IC50 [8] was 26.1 µM and the IC50 [9] was 29.7 µM. For the same compound, the IC50 [10] was 2.86 µM, the IC50 [11] was 5.97 µM and the IC50 [12] was 6.9 µM. It also gave an IC50 [13] of 17.1 µM and an IC50 [14] of 6.1 µM.
Compound O=[N+]([O-])c1ccc([C@@H](OP(=O)(N2CC2)N2CC2)C(F)(F)F)c2ccccc12 (single isomer, unassigned) [Compound C] has a median survival time [15] of 19 days, a mean biofluorescence value ([16]; 10 mg/kg tail vein QW×3) of 7.07E+05 photon/second and a TGI ([16]; 10 mg/kg tail vein) of 99.82%. It also gave a mean biofluorescence value ([16]; 20 mg/kg tail vein QW×3) of 1.79E+05 photon/second, a TGI ([16]; 20 mg/kg tail vein) of 100.03% and a mean biofluorescence value ([16]; 40 mg/kg tail vein QW×3) of 1.04E+05 photon/second. The TGI ([16]; 40 mg/kg tail vein) was 100.05%, the tolerability ([16]; single drug, 10-40 mg/kg) was “well tolerated” and the “body weight loss / tolerability” value ([17]; 10 mg/kg (Group 3)) was “no significant body weight loss and were well tolerated”. The “relative tumor inhibition rate TGI (%)” value ([17]; 10 mg/kg tail vein QW×3) was 32.35%, the “body weight loss / death” value ([17]; 20 mg/kg (Group 4)) was “significant weight loss and even death of individual or part of mice” and the “relative tumor inhibition rate TGI (%)” value ([17]; 20 mg/kg tail vein QW×3) was 36.79%. For the same compound, the “body weight loss / death” value ([17]; 40 mg/kg (Group 5)) was “significant weight loss and even death of individual or part of mice” and the “relative tumor inhibition rate TGI (%)” value ([17]; 40 mg/kg tail vein QW×3) was 35.93%.
In the case of O=[N+]([O-])c1ccc([C@H](OP(=O)(N2CC2)N2CC2)C(F)(F)F)c2ccccc12 [Compound B], the animal deaths [18] is reported as “Three of the six”.
With CC(OP(=O)(N1CC1)N1CC1)c1ccc([N+](=O)[O-])c2ccccc12 (stereo not shown) [Compound D] the “Remaining percentage after 30 minutes” value ([19]; with NADPH) was 0.86% and the “Remaining percentage after 30 minutes” value ([19]; without NADPH) was 95.89%.
